Read-outs that look alike come from different tables or passages of the source.
How the values were obtained:
[1] = Performance of growing cattle (Study 2: weight, gain, feed intake, gain/feed); format: in vivo, Angus steers; settings: for Average daily gain / Feed intake / Gain/feed / Final weight / Initial weight: growing steers; for Final weight / Initial weight: 25 ppm supplemental zinc; for Initial weight: baseline
Source text: Thirty-six Angus steers with an average body weight of 268 kg were stratified by weight and randomly assigned to feed regimens. […] Zinc was supplemented in all treatments to provide 25 ppm of supplemental zinc.
Steers were housed in pens of 12 steers and individually fed using electronic gates. Each pen contained an equal number of steers from each dietary regimen. Steers were fed a basal corn silage-based growing diet supplemented with protein, minerals and vitamins. Diets were offered ad libitum.
Body weights were obtained on two consecutive days at the initiation and termination of the 112-day study. Interim weights were taken at 28-day intervals. Blood and rumen fluid samples were obtained on day 42 of the study for determination of plasma and rumen fluid soluble zinc concentrations. Data were statistically analyzed by least square analysis of variance.

[2] = Performance of finishing cattle (Study 1: weight, gain, feed intake, gain/feed); format: in vivo, Angus crossbred steers; set-up: Average daily gain: unit not given here; settings: finishing steers; for Final weight / Initial weight: 25 ppm supplemental zinc; for Final weight: 140-day study; for Initial weight: baseline
Source text: Fifty-six Angus crossbred steers were used in this study. Steers were purchased from either a feeder calf sale […] a preconditioned sale. Steers were blocked by sale type and weight, and then randomly assigned to a feed regimen. […] All regimens provided 25 ppm of supplemental zinc. Steers were housed in pens containing seven steers each.
Supplemental protein was supplied from a combination of soybean meal and urea. Steer weights were obtained on two consecutive days at the beginning and the end of the 140-day study. Interim weights were taken at 28-day intervals. Feed intake was measured daily. Blood and rumen fluid samples were obtained from 10 steers per treatment approximately two hours post feeding on day 42 of the study. Samples were analyzed for plasma and rumen fluid soluble zinc concentrations. Data were analyzed statistically by least square analysis of variance.

[3] = cited from earlier work; for biological availability vs inorganic salts (in words): polyvalent metal ions from metal-amino acid complexes; for absorption of metal cations in the gastrointestinal tract (in words): in vivo
[4] = Comparative zinc bioavailability trial in day-old broilers (growth, feed conversion, bone ash, tibia ash zinc, plasma zinc); settings: for Relative Biological Availability: Feed conversion (corr.): 3-21 days; for Relative Biological Availability: Body weight gain / Relative Biological Availability: Bone ash / Relative Biological Availability: Ending body weight: 21 days
Procedure: Each zinc treatment was replicated eight times and each pen contained ten male birds.
Basal feeds and zinc compound were mixed in a horizontal feed mixer providing the desired ingredient composition as shown in Table 2. The broilers were fed the rations for 21 days. Feed weights were taken during the trial. Body weights were measured at the beginning and at the end of the trial. On day 21, zinc levels in the blood and tibia ash were determined. The assay procedures for total tibia zinc content or concentration to assess zinc utilization are similar to those used by Wedekind et al., J. Anim. Sci., 70:178-187 (1992). The data were analyzed according to the SAS statistical package.
Chick growth parameters and zinc levels in the blood and tibia ash were used as criteria to determine the biological availability of zinc. […] The biological availability of zinc sulfate was arbitrarily set at 100%.

[5] = chickens; cited from earlier work
[6] = bovine, in vivo; cited from earlier work
[7] = in vivo; cited from earlier work
[8] = 0 to 28 days, propionate vs. methionine P < 0.05, vs. sulfate P < 0.10 (as footnoted)
[9] = 29 to 56 days, propionate vs. methionine P < 0.05
[10] = 29 to 56 days, propionate vs. sulfate P < 0.05, vs. methionine P < 0.10
[11] = 57 to 84 days, propionate vs. sulfate P < 0.10
[12] = Total (0 to 112 days), propionate vs. sulfate P < 0.05, vs. methionine P < 0.10
[13] = 0 to 28 days, propionate vs. sulfate P < 0.05, vs. methionine P < 0.10
[14] = 55 to 112 days (so in the source)
[15] = zinc sulfate arbitrarily set at 100%
[16] = day 21, zinc sulfate arbitrarily set at 100%

## CSCC[C@H](N)C(=O)O.O=S(=O)([O-])O.O=S(=O)([O-])O.[Zn+2] [Zinc methionine, Zinc methionine bisulfate]
[1]; 29 to 56 days, methionine vs propionate (P<0.05)
  gains, second 28-day period (in words): gains were greater (P<0.05) in steers fed zinc methionine compared with those fed zinc propionate
[1]; 112-day study
  Gains for the entire study (in words): tended to be higher for steers fed zinc methionine
  Final weight: 399.6 kg
[1]; 0 to 28 days
  Average daily gain: 1.33 kg
  Feed intake: 8.11 kg/day
[1]; [8]
  Gain/feed: 0.164
[1]
  Initial weight: 267.7 kg
[1]; 29 to 56 days
  Feed intake: 9.03 kg/day
[1]; [9]
  Average daily gain: 1.18 kg
[1]; [10]
  Gain/feed: 0.132
[1]; 57 to 84 days
  Average daily gain: 0.87 kg
  Gain/feed: 0.104
[1]; [11]
  Feed intake: 8.62 kg/day
[1]; 85 to 112 days
  Average daily gain: 1.34 kg
  Feed intake: 8.56 kg/day
  Gain/feed: 0.158
[1]; Total (0 to 112 days)
  Average daily gain: 1.18 kg
  Feed intake: 8.58 kg/day
[1]; [12]
  Gain/feed: 0.139
[1]; total study period, vs zinc sulfate (P<0.10)
  feed consumption (in words): consumed more (P<0.10) feed over the total study period than steers fed zinc sulfate
[2]; 0 to 28 days
  Average daily gain: 1.32
  Feed intake: 6.35 kg/day
[2]; [13]
  Gain/feed: 0.208
[2]
  Final weight: 487.6 kg
  Initial weight: 304.7 kg
[2]; 29 to 56 days
  Average daily gain: 1.45
  Feed intake: 7.76 kg/day
  Gain/feed: 0.186
[2]; [14]
  Gain/feed: 0.115
[2]; 57 to 84 days
  Average daily gain: 1.57
  Feed intake: 6.43 kg/day
  Gain/feed: 0.244
[2]; 85 to 112 days
  Average daily gain: 0.97
  Feed intake: 8.51 kg/day
[2]; 113 to 140 days
  Average daily gain: 1.22
  Feed intake: 6.59 kg/day
  Gain/feed: 0.184
[2]; Total (0 to 140 days)
  Average daily gain: 1.31
  Feed intake: 7.13 kg/day
  Gain/feed: 0.183
[3]
  biological availability vs inorganic salts (in words): more biologically available to the animal than are the same ions provided from inorganic salts
[4]; [15]
  Relative Biological Availability: Feed conversion (corr.): 90.38%
  Relative Biological Availability: Body weight gain: 131.52%
  Relative Biological Availability: Bone ash: 113.95%
  Relative Biological Availability: Ending body weight: 132.46%
[4]; day 21
  levels of zinc in the blood and tibia ash (in words): comparable levels of zinc in the blood and tibia ash
[4]; [16]
  Relative Biological Availability: Plasma Zinc: 124.00%
  Relative Biological Availability: Tibia ash zinc: 123.99%

## CC(=O)[O-].CC(=O)[O-].[Zn+2] [zinc acetate, Zinc acetate]
[5]
  toxicity (in words): toxic to chickens

## O=S(=O)([O-])[O-].[Zn+2] [Zinc sulfate]
[1]; 0 to 28 days
  Average daily gain: 1.34 kg
  Feed intake: 7.67 kg/day
[1]; [8]
  Gain/feed: 0.178
[1]; 112-day study
  Final weight: 391.8 kg
[1]
  Initial weight: 265.5 kg
[1]; 29 to 56 days
  Feed intake: 8.13 kg/day
[1]; [9]
  Average daily gain: 1.10 kg
[1]; [10]
  Gain/feed: 0.137
[1]; 57 to 84 days
  Average daily gain: 0.72 kg
  Gain/feed: 0.095
[1]; [11]
  Feed intake: 7.62 kg/day
[1]; 85 to 112 days
  Average daily gain: 1.36 kg
  Feed intake: 7.86 kg/day
  Gain/feed: 0.174
[1]; Total (0 to 112 days)
  Average daily gain: 1.13 kg
  Feed intake: 7.82 kg/day
[1]; [12]
  Gain/feed: 0.145
[2]; 0 to 28 days
  Average daily gain: 1.26
  Feed intake: 6.28 kg/day
[2]; [13]
  Gain/feed: 0.201
[2]
  Final weight: 489.6 kg
  Initial weight: 303.0 kg
[2]; 29 to 56 days
  Average daily gain: 1.46
  Feed intake: 7.51 kg/day
  Gain/feed: 0.195
[2]; [14]
  Gain/feed: 0.142
[2]; 57 to 84 days
  Average daily gain: 1.52
  Feed intake: 6.21 kg/day
  Gain/feed: 0.244
[2]; 85 to 112 days
  Average daily gain: 1.19
  Feed intake: 8.33 kg/day
[2]; 113 to 140 days
  Average daily gain: 1.24
  Feed intake: 6.60 kg/day
  Gain/feed: 0.189
[2]; Total (0 to 140 days)
  Average daily gain: 1.33
  Feed intake: 6.99 kg/day
  Gain/feed: 0.191
[4]; [15]
  Relative Biological Availability: Feed conversion (corr.): 100.00%
  Relative Biological Availability: Body weight gain: 100.00%
  Relative Biological Availability: Bone ash: 100.00%
  Relative Biological Availability: Ending body weight: 100.00%
[4]; chicken, in vivo, 30240 min
  Relative Biological Availability: Plasma Zinc: 100.00%
  Relative Biological Availability: Tibia ash zinc: 100.00%

## O=C([O-])CC(O)(CC(=O)[O-])C(=O)[O-].O=C([O-])CC(O)(CC(=O)[O-])C(=O)[O-].[Zn+2].[Zn+2].[Zn+2] [zinc citrate]
[3]
  absorption of metal cations in the gastrointestinal tract (in words): variable results, enhancing absorption in one study and having no effect in others

## zinc picolinate
[6]
  absorption of zinc (in words): not in cattle
[3]
  absorption of metal cations in the gastrointestinal tract (in words): variable results, enhancing absorption in one study and having no effect in others
[7]
  absorption of zinc (in words): enhance the absorption of zinc in humans and rats

## NCCCC[C@H](N)C(=O)O.[Zn] [zinc-lysine]
[3]
  biological availability vs inorganic salts (in words): more biologically available to the animal than are the same ions provided from inorganic salts

Reference: patent publication US5707679A, “Metal propionates for use as animal feed supplements” (priority 1995, dated 1998)
